Our source for the inhibition, Inhibition and IC50 values is ChEMBL document CHEMBL1127662, “3-Alkoxybenzo[b]thiophene-2-carboxamides as inhibitors of neutrophil-endothelial cell adhesion” (J Med Chem, 1994).

Structures are written as SMILES. Where only a bound is given, the exact number is not on record here.

One may read the inhibition as the relative decrease from the control value, in per cent. Broadly, the Inhibition is the share of the control response that was lost under treatment. High values mean a strong effect, low ones a weak effect. A word on the IC50: it is the point on the concentration scale where inhibition reaches its midpoint. Higher therefore signals lower potency.

The test system of one assay is HUVEC. The assay is described as follows: (§1) Tested for adhesion of neutrophils to human umbilical vein endothelial cell at the dose of 100 uM. The format is functional.
`CC(C)Oc1c(C(N)=O)sc2ccccc12` showed an inhibition at 100 µM of 60%.

Consider `COc1ccc2sc(C(N)=O)c(OC(C)(C)C)c2c1`, for which the inhibition at 100 µM was 97%.

For `Cc1ccc2sc(C(N)=O)c(OC(C)C)c2c1`, the inhibition at 100 µM was found to be 61%.

Turning to `CC(C)Oc1c(C(N)=O)sc2ccc(OCc3ccccc3)cc12`, the inhibition at 100 µM was less than 4%.

Turning to `CCNC(=O)c1sc2ccc(OC)cc2c1OC(C)C`, the inhibition at 100 µM stood at 64%.

The compound `COc1ccc2sc(C(N)=O)c(OC)c2c1` yielded an inhibition at 100 µM of 60%.

The compound `COc1cccc2c(OC(C)C)c(C(N)=O)sc12` came in with an inhibition at 100 µM of 35%.

As for `COc1ccc2sc(C(=O)Nc3ccccc3)c(OC(C)C)c2c1`, the inhibition at 100 µM amounted to 12%.

`COc1ccc2sc(C(N)=O)c(Oc3ccccc3)c2c1` returned an inhibition at 100 µM of 59%.

As to `CC(C)Oc1c(C(N)=O)sc2ccc(N)cc12`, 100 µM produced 49% inhibition.

`CC(C)Oc1c(C(N)=O)sc2ccc(Cl)cc12` gave an inhibition at 100 µM of 72%.

In turn, `COc1ccc2c(OC(C)C)c(C(N)=O)sc2c1` displayed an inhibition at 100 µM of 24%.

Compound `COc1ccc2sc(C(N)=O)c(OCc3ccccc3)c2c1` displayed an inhibition at 100 µM of 57%.

The test system of a further assay is HUVEC. The assay is described as §1. The format is functional, cell-based.
For the compound `COc1ccc2c(c1)C(OC(C)C)=C(C(N)=O)S2(=O)=O`, the Inhibition is less than 4%.

`COc1ccc2c(c1)c(OC(C)C)c(C(N)=O)[s+]2[O-]` (stereo not drawn) yielded an IC50 of 8.7 µM.

For the compound `CC(C)Oc1c(C(N)=O)sc2ccc([N+](=O)[O-])cc12`, the Inhibition was 40%.

Compound `CC(C)Oc1c(C(N)=O)sc2ccc(O)cc12` had an IC50 of 6.4 µM.

The compound `CNC(=O)c1sc2ccc(OC)cc2c1OC(C)C` showed an IC50 of 15 µM.
